From article PMC12501029, “Discovery of a CNS active GSK3 degrader using orthogonally reactive linker screening” (Nature Communications, 2025)

Assays:
[1] = Intrinsic clearance (Cli), mouse liver microsomes; assay type: in vitro ADME; settings: 0.5 µM, scaling factor 48 mg microsomal protein per g liver
Protocol: Test compound (0.5 µM) was incubated with female CD1 mouse, male rat Han Wistar and pooled human liver microsomes (Xenotech^TM; 0.5 mg/mL 50 mM potassium phosphate buffer, pH7.4) and the reaction started with addition of excess NADPH (8 mg/mL 50 mM potassium phosphate buffer, pH7.4). Immediately, at time zero, then at 3, 6, 9, 15 and 30 min an aliquot (50 µL) of the incubation mixture was removed and mixed with acetonitrile (100 uL) to stop the reaction. An internal standard was added to all samples, the samples centrifuged to sediment precipitated protein and the plates then sealed prior to UPLC-MSMS analysis (Xevo TQ-S Micro, Waters^TM). XLfit (IDBS, UK) was used to calculate the exponential decay and consequently the rate constant (k) from the ratio of peak area of test compound to internal standard at each timepoint. The rate of intrinsic clearance (CLi) of each test compound was then calculated using the following calculation:1 CLi(mL/min/gliver)=kxVxMicrosomalproteinyield Where V (mL/mg protein) is the incubation volume/mg protein added and microsomal protein yield is taken as 48 mg, 46 mg and 40 mg protein/g liver for mouse, rat and human, respectively. Verapamil (0.5 µM) was used as a positive control to confirm acceptable assay performance.

GSK3β = molecular target: T1, GSK3β (Homo sapiens, UniProt P49841); experiment: Immunoblot degradation of endogenous GSK3β in HEK293 cells; assay type: cell-based; settings: 10 nM; for endogenous GSK3β degradation: 2 h, HEK293
T1 construct: PROTAC-mediated degradation of untagged, endogenous GSK3β in HEK293 cells; host or cells: HEK293
T1 sequence (P49841 whole entry): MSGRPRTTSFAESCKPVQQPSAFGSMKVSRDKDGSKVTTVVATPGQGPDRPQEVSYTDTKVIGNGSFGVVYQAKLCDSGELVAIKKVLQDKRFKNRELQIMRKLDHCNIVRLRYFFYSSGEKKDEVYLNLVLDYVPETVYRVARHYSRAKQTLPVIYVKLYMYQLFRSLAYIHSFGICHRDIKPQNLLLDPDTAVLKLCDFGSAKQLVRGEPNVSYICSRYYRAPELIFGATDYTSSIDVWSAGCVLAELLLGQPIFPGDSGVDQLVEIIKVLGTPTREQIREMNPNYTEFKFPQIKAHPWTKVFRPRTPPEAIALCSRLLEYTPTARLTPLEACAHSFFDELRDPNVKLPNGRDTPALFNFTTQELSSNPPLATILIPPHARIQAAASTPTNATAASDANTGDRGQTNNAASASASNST
Protocol: (§1) HEK293, HAP1, HAP1 CRBN KO and SH-SY5Y cells were plated in either 6 cm plates or 6-well plates at varying densities (0.5–0.7 × 10^6 cells per plate or wells), and MEF cells were plated in 10 cm plates (1–1.2 × 10^6 cells per plate) depending on experimental set up in respective culturing condition as described above. Stock solutions of compounds were prepared as 10 mM in DMSO (Sigma–Aldrich). Working dilutions were made up fresh in DMSO and culturing media or differentiation media was refreshed prior to any compound treatments. For mode of action studies, cells were pre-treated with inhibitors for 2 h: 1 µM MG132 (Merck, 474790-5 mg), 1 µM MLN4924 (Merck, 5054770001) or 1 µM GSK3 inhibitor (compound 29), before treating with PROTACs for 2, 4 or 24 h as indicated in figure legends. Cells were washed twice with ice-cold PBS (Gibco), harvested in PBS and pelleted, cells were resuspended in RIPA buffer supplemented with complete EDTA-free protease inhibitor cocktail (Roche,11873580001, 1/10 mL) and phosSTOP (Roche, 04906845001, 1 tablet/10 mL) for 20 min lysis on ice then cleared via centrifugation at 16,000 × g, 4 °C for 20 min. SH-SY5Y cells were lysed in 500 µL ice-cold lysis buffer (25 mM Tris-HCl (pH 7.4), 50 mM NaF, 100 mM NaCl, 1 mM EDTA, 4 mM EGTA, 1% (v/v) Triton-X-100, 0.09% (w/v) sucrose, 10 mM sodium pyrophosphate, 10 mM sodium vanodate, 0.1% (v/v) β-mercaptoethanol, supplemented with complete mini protease inhibitor tablet (Sigma; 1 tablet/ 10 mL buffer)). Lysates were flash frozen, thawed and centrifugated at 16,000 × g, 4 °C for 20 min. Following clearance of lysates, protein concentrations were determined by the BCA assay (Fisher Scientific, 23225) or Bradford assay (Bio-rad). Five to thirty micrograms of protein from lysates were prepared in 4×LDS buffer (Thermo Fisher) and 50 mM dithiothreitol (DTT) denaturated at 95 °C for 5 min. […]

GSK3α = molecular target: T2, GSK3α (Homo sapiens, UniProt P49840); experiment: Immunoblot degradation of endogenous GSK3α in HEK293 cells; assay type: cell-based; settings: 10 nM, 2 h
T2 construct: Endogenous GSK3 paralog degradation with compounds 24 and 26 and negative controls 27 and 28 in HEK293 cells; host or cells: HEK293
T2 sequence (P49840 whole entry): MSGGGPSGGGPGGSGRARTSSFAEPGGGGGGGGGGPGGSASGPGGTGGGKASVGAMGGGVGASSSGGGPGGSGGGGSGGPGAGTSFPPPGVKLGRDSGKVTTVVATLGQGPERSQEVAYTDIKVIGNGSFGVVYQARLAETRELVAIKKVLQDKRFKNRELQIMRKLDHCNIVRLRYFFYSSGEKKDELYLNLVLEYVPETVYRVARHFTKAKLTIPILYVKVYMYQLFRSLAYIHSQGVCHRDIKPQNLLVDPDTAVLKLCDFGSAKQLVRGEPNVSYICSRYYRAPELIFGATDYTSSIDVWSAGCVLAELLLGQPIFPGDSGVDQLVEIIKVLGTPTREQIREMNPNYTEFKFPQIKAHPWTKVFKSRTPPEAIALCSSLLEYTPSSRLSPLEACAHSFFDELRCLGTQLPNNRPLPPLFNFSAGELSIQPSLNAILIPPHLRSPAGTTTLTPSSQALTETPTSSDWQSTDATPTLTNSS
Protocol: as §1, with “SH-SY5Y cells were lysed in 500 µL ice-cold lysis buffer (25 mM Tris-HCl (pH 7.4), 50 mM NaF, 100 mM NaCl, 1 mM EDTA, 4 mM EGTA, 1% (v/v) Triton-X-100, 0.09% (w/v) sucrose, 10 mM sodium pyrophosphate, 10 mM sodium vanodate, 0.1% (v/v) β-mercaptoethanol, supplemented with complete mini protease inhibitor tablet (Sigma; 1 tablet/ 10 mL buffer)). Lysates were flash frozen, thawed and centrifugated at 16,000 × g, 4 °C for 20 min.” left out, “(Bio-rad).” for “(Bio-rad). Five to thirty micrograms of protein from lysates were prepared in 4×LDS buffer (Thermo Fisher) and 50 mM dithiothreitol (DTT) denaturated at 95 °C for 5 min.”

GSK3 = experiment: Mode of action rescue studies in HEK293 cells (pre-treatment with MG132, MLN4924 or GSK3 inhibitor 29); assay type: cell-based, human; settings: 2 h pre-treatment, 1 µM each inhibitor
Protocol: as §1, with “SH-SY5Y cells were lysed in 500 µL ice-cold lysis buffer (25 mM Tris-HCl (pH 7.4), 50 mM NaF, 100 mM NaCl, 1 mM EDTA, 4 mM EGTA, 1% (v/v) Triton-X-100, 0.09% (w/v) sucrose, 10 mM sodium pyrophosphate, 10 mM sodium vanodate, 0.1% (v/v) β-mercaptoethanol, supplemented with complete mini protease inhibitor tablet (Sigma; 1 tablet/ 10 mL buffer)). Lysates were flash frozen, thawed and centrifugated at 16,000 × g, 4 °C for 20 min.” left out, “(Bio-rad).” for “(Bio-rad). Five to thirty micrograms of protein from lysates were prepared in 4×LDS buffer (Thermo Fisher) and 50 mM dithiothreitol (DTT) denaturated at 95 °C for 5 min.”

SMILES | Scaled Microsomal Stability MuClint [1] | impact on GSK3 levels (GSK3β; 30 min, HEK cells) | endogenous GSK3β degradation (GSK3β) | endogenous GSK3α degradation (GSK3α) | GSK3 degradation in presence of MG132, MLN4924 or GSK3 inhibitor 29 (GSK3)
O=C1CCC(NC(=O)c2ccc(CN3CCN(Cc4ccc(-c5cn(-c6ccc(-c7cn8nccc(C(=O)Nc9cnccc9N9CCOCC9)c8n7)cc6)nn5)nc4)CC3)cn2)C(=O)N1 (stereo not shown) [compound 22] | < 0.53 ml/min/g liver | – | – | – | –
Cn1nc(N2CCC(=O)NC2=O)c2ccc(CN3CCN(Cc4ccc(-c5cn(-c6ccc(-c7cn8nccc(C(=O)Nc9cnccc9N9CCOCC9)c8n7)cc6)nn5)nc4)CC3)cc21 [compound 24] | 2.4 ml/min/g liver | little impact | almost complete removal | almost complete | rescued
Cn1nc(N2CCC(=O)NC2=O)c2ccc(CN3CCN(CCCc4cn(-c5ccc(-c6cn7nccc(C(=O)Nc8cnccc8N8CCOCC8)c7n6)cc5)nn4)CC3)cc21 [compound 26] | 4.0 ml/min/g liver | – | almost complete | almost complete | rescued
